Data from patent US7514251B2, “O-methyltransferases of tetrahydrobenzylisoquinoline alkaloid biosynthesis in Papaver somniferum” (priority 2003, dated 2009).
Marks after values point to notes of the source that are not given here.

Biological target: T1, PSOMT1 ((R,S)-reticuline 7-O-methyltransferase) (Papaver somniferum, UniProt Q6WUC2)
T1 construct: The full-length cDNA generated by RT-PCR was ligated into pFastBac HTa; His6 (N); made in house; host or cells: Spodoptera frugiperda Sf9 (baculovirus, pFastBac HTa)
T1 sequence (Q6WUC2 whole entry): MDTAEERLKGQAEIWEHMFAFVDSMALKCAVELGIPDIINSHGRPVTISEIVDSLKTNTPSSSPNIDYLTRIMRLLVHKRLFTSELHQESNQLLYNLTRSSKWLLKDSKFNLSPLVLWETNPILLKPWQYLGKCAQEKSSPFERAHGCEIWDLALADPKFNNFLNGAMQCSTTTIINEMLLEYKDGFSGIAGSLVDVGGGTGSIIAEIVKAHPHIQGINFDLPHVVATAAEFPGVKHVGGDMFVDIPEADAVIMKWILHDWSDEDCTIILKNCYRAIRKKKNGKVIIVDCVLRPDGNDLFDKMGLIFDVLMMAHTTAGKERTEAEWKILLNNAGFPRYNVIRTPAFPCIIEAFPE
Assay: not given
Format: biochemical
Conditions: 100% activity = 1.5 pmoles/sec/mg total protein; radioassay
Description: (§1) Heterologous Expression and Enzyme Purification—The full-length cDNA generated by RT-PCR was ligated into pFastBac HTa that had been digested with restriction endonucleases BamHI and NotI. The recombinant plasmid was transposed into baculovirus DNA in the Escherichia coli strain DH10BAC (Life Technologies) and then transfected into Spodoptera frugiperda Sf9 cells according to the manufacturer's instructions. The insect cells were propagated and the recombinant virus was amplified according to (16,17). INSECT-XPRESS serum-free medium (Bio Whittaker) was used in the enzyme expression experiments.
(§2) After infection of 20 ml suspension grown insect cells had proceded for 3-4 days at 28° C. and 130 rpm, the cells were removed by centrifugation under sterile conditions at 900× g for 5 min at 4° C. All subsequent steps were performed at 4° C. The pellet was discarded and to the medium was added 0.73 g NaCl, 2.5 ml glycerol and 50 μl […]-mercaptoethanol. The pH was adjusted to 7.0 with 1.0 M NaOH. The His-tagged O-methyltransferase was then purified by affinity chromatography using a cobalt resin (Talon, Clontech) according to the manufacturer's instructions.
(§3) Enzyme assay and product identification: The O-methylation reactions catalysed by the two O-methyltransferases were assayed at least two times in duplicate according to Rüffer et al. (1983a; 1983b) as follows. Substrate (25 nmol), [methyl-3H]-AdoMet (20,000 dpm, 0.4 fmol), AdoMet (10 nmol) Tris/HC1 buffer pH 8.0 (10 μmol), ascorbate (5 μmol) and 5-10 μg of enzyme were incubated in a total volume of 150 μl at 35° C. for 5-60 min. The enzymic reaction was terminated by addition of 200 μl ethylacetate. The organic phase ([…]) was added to 3 ml high flash point liquid scintillation cocktail (Packard) and the radioactivity quantified with a Beckman LS6000TA liquid scintillation counter.
(§4) General Methods—Total RNA was isolated and RNA gels were run and blotted as described previously (20). Genomic DNA was isolated and DNA gels were run and blotted according to (21). cDNA clones were labeled by PCR labeling with [[…]-^32P]dATP. Hybridized RNA on RNA gel blots and DNA on DNA gel blots were visualized with a STORM phosphor imager (Molecular Dynamics). The entire nucleotide sequence on both DNA strands of the full-length clone was determined by dideoxy cycle sequencing using internal DNA sequences for the design of deoxyoligonucleotides as sequencing primers. Saturation curves and double reciprocal plots were constructed with the Fig. P program Version 2.7 (Biosoft, Cambridge, UK). The influence of pH on enzyme activity was monitored in sodium citrate (pH 4-6), sodium phosphate (pH 6-7.0) and Tris-HCl (pH 7.0-9), glycine/NaOH (pH 9-10.5) buffered solutions.

SMILES | Substrate specificity, relative activity of PSOMT1
COc1cc(CC2c3cc(OC)c(O)cc3CCN2C)ccc1O (racemic) [(R,S)-Isoorientaline] | 46%
COc1ccc(C[C@@H]2c3cc(O)c(OC)cc3CCN2C)cc1O [(R)-Reticuline] | 100^a %
COc1ccc(C[C@H]2NCCc3cc(O)c(OC)cc32)cc1O [(R)-Norprotosinomenine] | 0%

Same assay, conditions: PSOMT1

SMILES | Vmax Substrate [pmol/s] | kcat Substrate [s⁻¹] | pH optimum of methylation | ratio kcat/Km [M⁻¹ s⁻¹] | temperature optimum [°C]
COc1cc(CC2c3cc(OC)c(O)cc3CCN2C)ccc1O (racemic) [(R,S)-Isoorientaline] | 1 | 0.02 | 7.5-9.0 | 1440 | 
COc1ccc(C[C@@H]2c3cc(O)c(OC)cc3CCN2C)cc1O [(R)-Reticuline] | 4 | 0.07 | 8.0 | 4200 | 37

Same assay, conditions: PSOMT1; co-substrate AdoMet with the named substrate; read-out: Km AdoMet

SMILES | Km [µM]
COc1cc(CC2c3cc(OC)c(O)cc3CCN2C)ccc1O (racemic) [(R,S)-Isoorientaline] | 260
COc1ccc(C[C@@H]2c3cc(O)c(OC)cc3CCN2C)cc1O [(R)-Reticuline] | 310

Same assay, conditions: PSOMT1; read-out: Km Substrate

SMILES | Km [µM]
COc1cc(CC2c3cc(OC)c(O)cc3CCN2C)ccc1O (racemic) [(R,S)-Isoorientaline] | 17
COc1ccc(C[C@@H]2c3cc(O)c(OC)cc3CCN2C)cc1O [(R)-Reticuline] | 17

Same assay, conditions: one of forty substrates tested

SMILES | methylated by PSOMT1 (radioassay, in words)
COc1cc(CC2c3cc(OC)c(O)cc3CCN2C)ccc1O (racemic) [(R,S)-Isoorientaline] | methylates
COc1ccc(C[C@@H]2c3cc(O)c(OC)cc3CCN2C)cc1O [(R)-Reticuline] | methylates

Biological target: T2, PSOMT2 ((R,S)-norcoclaurine 6-O-methyltransferase) (Papaver somniferum, UniProt Q6WUC1)
T2 construct: The full-length cDNA generated by RT-PCR was ligated into pFastBac HTa; His6 (N); made in house; host or cells: Spodoptera frugiperda Sf9 (baculovirus, pFastBac HTa)
T2 sequence (Q6WUC1 1-346): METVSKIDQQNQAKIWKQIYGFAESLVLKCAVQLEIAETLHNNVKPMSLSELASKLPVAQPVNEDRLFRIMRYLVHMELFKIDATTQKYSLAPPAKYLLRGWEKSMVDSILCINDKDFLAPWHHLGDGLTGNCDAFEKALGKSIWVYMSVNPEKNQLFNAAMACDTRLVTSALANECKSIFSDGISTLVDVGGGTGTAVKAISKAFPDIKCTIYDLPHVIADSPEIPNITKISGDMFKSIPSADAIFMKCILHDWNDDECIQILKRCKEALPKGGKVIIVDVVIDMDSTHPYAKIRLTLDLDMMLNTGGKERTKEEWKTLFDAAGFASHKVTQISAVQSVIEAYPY
Assay: Radioassay of recombinant PSOMT2 with [methyl-3H]-AdoMet (substrate specificity, kinetics, pH and temperature optima)
Format: biochemical
Conditions: 100% activity = 2.0 pmoles/sec/mg total protein; radioassay
Description: as §1, §2, §3, §4

SMILES | Substrate specificity, relative activity of PSOMT2 [%]
COc1cc(CC2c3cc(OC)c(O)cc3CCN2C)ccc1O (racemic) [(R,S)-Isoorientaline] | 47
COc1ccc(C[C@@H]2c3cc(O)c(OC)cc3CCN2C)cc1O [(R)-Reticuline] | 0
COc1ccc(C[C@H]2NCCc3cc(O)c(OC)cc32)cc1O [(R)-Norprotosinomenine] | 26

Same assay, conditions: PSOMT2

SMILES | Vmax Substrate [pmol/s] | kcat Substrate [s⁻¹] | pH optimum of methyl transfer | kcat/Km ratio relative to that obtained for (R,S)-norcoclaurine [%]
COc1cc(CC2c3cc(OC)c(O)cc3CCN2C)ccc1O (racemic) [(R,S)-Isoorientaline] | 2 | 0.03 | 7.5 | 
COc1ccc(C[C@H]2NCCc3cc(O)c(OC)cc32)cc1O [(R)-Norprotosinomenine] | 1 | 0.02 | 7.5 | 55

Same assay, conditions: PSOMT2; co-substrate AdoMet with the named substrate; read-out: Km AdoMet

SMILES | Km [µM]
COc1cc(CC2c3cc(OC)c(O)cc3CCN2C)ccc1O (racemic) [(R,S)-Isoorientaline] | 280
COc1ccc(C[C@H]2NCCc3cc(O)c(OC)cc32)cc1O [(R)-Norprotosinomenine] | 200

Same assay, conditions: PSOMT2; read-out: Km Substrate

SMILES | Km [µM]
COc1cc(CC2c3cc(OC)c(O)cc3CCN2C)ccc1O (racemic) [(R,S)-Isoorientaline] | 29
COc1ccc(C[C@H]2NCCc3cc(O)c(OC)cc32)cc1O [(R)-Norprotosinomenine] | 5

Same assay, conditions: one of forty substrates tested

SMILES | methylated by PSOMT2 (radioassay, in words)
COc1cc(CC2c3cc(OC)c(O)cc3CCN2C)ccc1O (racemic) [(R,S)-Isoorientaline] | methylating
COc1ccc(C[C@H]2NCCc3cc(O)c(OC)cc32)cc1O [(R)-Norprotosinomenine] | methylating

Biological target: T1, PSOMT1 ((R,S)-reticuline 7-O-methyltransferase)
Assay: HPLC-MS identification of enzymic products of PSOMT1
Format: biochemical
Conditions: HPLC-MS of enzymic product
Procedure: (§5) The identity of the enzymic reaction products was ascertained by HPLC-MS using a Finnigan MAT TSQ 7000 (electrospray voltage 4.5 kV, capillary temperature 220° C., carrier gas N2) coupled to a Micro-tech Ultra-Plus Micro-LC equipped with an Ultrasep RP18 column; 5 μm; 1×10 mm), Solvent system (A) 99.8% (v/v) H2O, 0.2% HOAc (B) 99.8% CH3CN (v/v), 0.2% HOAc; gradient: 0-15 min 10-90% B, 15-25 min 90% B; flow 70 μl min^−1). The collision-induced dissociation (CID; collision energy, −25 eV; collision gas, argon; collision pressure, 1.8×10^−3 Torr) mass spectra for the tetrahydrobenzylisoquinoline alkaloids were recorded.
(§6) Structure Elucidation of Enzymic Products—Initial enzyme activity measurements were carried out using a radioassay. Many of the substrates tested contained more than one site of potential methylation. […] Tetrahydrobenzylisoquinolines readily cleave at low ionization energies into the corresponding isoquinoline- and benzyl ions. This enables identification of methylation at either moiety. Each alkaloidal substrate was monitored for purity by HLPC-MS and the fragmentation pattern was determined. Enzymic product fragmentation patterns were then compared to those of substrate. All substrates were methylated by either PSOMT1 or PSOMT2 on the isoquinoline moiety. For example, (R)- or (S)-reticuline ([M+H]^+ m/z 330) has the major fragment ions m/z 192 (isoquinoline) and m/z 137 (benzyl). The methylation of (R)- or (S)-reticuline by PSOMT1 results in a product of [M+H]^+ m/z 344 (methylated (R)- or (S)-reticuline) with fragment ions at m/z 206 (isoquinoline+CH2) and m/z 137 (unmodified benzyl). Likewise, (R,S)-norcoclaurine ([M+H]^+ m/z 272) has the major fragment ions m/z 161 (isoquinoline) and m/z 107 (benzyl). The methylation of (R,S)-norcoclaurine by PSOMT2 results in a product of [M+H]^+ m/z 286 (methylated (R,S)-norcoclaurine) with fragment ions at m/z 175 (isoquinoline+CH2) and m/z 107 (unmodified benzyl).

SMILES | position of O-methylation by PSOMT1
COc1cc(CC2c3cc(OC)c(O)cc3CCN2C)ccc1O (racemic) [(R,S)-Isoorientaline] | O-methylated by PSOMT1 at C-6
COc1ccc(C[C@@H]2c3cc(O)c(OC)cc3CCN2C)cc1O [(R)-Reticuline] | O-methylated at C-7

Biological target: T2, PSOMT2 ((R,S)-norcoclaurine 6-O-methyltransferase)
Assay: HPLC-MS identification of enzymic products of PSOMT2
Format: biochemical
Conditions: HPLC-MS of enzymic product
Procedure: as §5, §6

SMILES | position of O-methylation by PSOMT2
COc1cc(CC2c3cc(OC)c(O)cc3CCN2C)ccc1O (racemic) [(R,S)-Isoorientaline] | at C-6
COc1ccc(C[C@H]2NCCc3cc(O)c(OC)cc32)cc1O [(R)-Norprotosinomenine] | at C-6
